Results from PubChem BioAssay (NCI).
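Exposure lasted 48 hours, with cells grown in 96-well plates and compounds tested at five concentrations. GI50: concentration for 50% inhibition of growth. TGI: total growth inhibition.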

How the values were obtained:
Assay in all cases: inhibition of tumour cell growth, NCI panel, 48 h
786-0 renal = tested on: 786-0 renal
A498 renal = tested on: A498 renal
A549 NSCLC = tested on: A549 NSCLC
ACHN renal = tested on: ACHN renal
BT-549 breast = tested on: BT-549 breast
CAKI-1 renal = tested on: CAKI-1 renal
CCRF-CEM leukemia = tested on: CCRF-CEM leukemia
COLO 205 colon = tested on: COLO 205 colon
DU-145 prostate = tested on: DU-145 prostate
EKVX NSCLC = tested on: EKVX NSCLC
HCC-2998 colon = tested on: HCC-2998 colon
HCT-116 colon = tested on: HCT-116 colon
HCT-15 colon = tested on: HCT-15 colon
HL-60(TB) leukemia = tested on: HL-60(TB) leukemia
HOP-62 NSCLC = tested on: HOP-62 NSCLC
HS 578T breast = tested on: HS 578T breast
HT29 colon = tested on: HT29 colon
IGROV1 ovarian = tested on: IGROV1 ovarian
K-562 leukemia = tested on: K-562 leukemia
KM12 colon = tested on: KM12 colon
LOX IMVI melanoma = tested on: LOX IMVI melanoma
M14 melanoma = tested on: M14 melanoma
MALME-3M melanoma = tested on: MALME-3M melanoma
MCF7 breast = tested on: MCF7 breast
MDA-MB-231 breast = tested on: MDA-MB-231 breast
MDA-MB-435 = tested on: MDA-MB-435
MOLT-4 leukemia = tested on: MOLT-4 leukemia
NCI-H226 lung = tested on: NCI-H226 lung
NCI-H460 lung = tested on: NCI-H460 lung
NCI-H522 lung = tested on: NCI-H522 lung
NCI/ADR-RES ovarian = tested on: NCI/ADR-RES ovarian
OVCAR-3 ovarian = tested on: OVCAR-3 ovarian
OVCAR-4 ovarian = tested on: OVCAR-4 ovarian
OVCAR-5 ovarian = tested on: OVCAR-5 ovarian
OVCAR-8 ovarian = tested on: OVCAR-8 ovarian
PC-3 prostate = tested on: PC-3 prostate
SF-268 CNS = tested on: SF-268 CNS
SF-295 CNS = tested on: SF-295 CNS
SF-539 CNS = tested on: SF-539 CNS
SK-MEL-2 melanoma = tested on: SK-MEL-2 melanoma
SK-MEL-28 melanoma = tested on: SK-MEL-28 melanoma
SK-MEL-5 melanoma = tested on: SK-MEL-5 melanoma
SK-OV-3 ovarian = tested on: SK-OV-3 ovarian
SN12C renal = tested on: SN12C renal
SNB-19 CNS = tested on: SNB-19 CNS
SNB-75 CNS = tested on: SNB-75 CNS
SW-620 colon = tested on: SW-620 colon
T-47D breast = tested on: T-47D breast
TK-10 renal = tested on: TK-10 renal
U251 CNS = tested on: U251 CNS
UACC-257 melanoma = tested on: UACC-257 melanoma
UACC-62 melanoma = tested on: UACC-62 melanoma
UO-31 renal = tested on: UO-31 renal
HOP-92 NSCLC = tested on: HOP-92 NSCLC
NCI-H23 lung = tested on: NCI-H23 lung
RPMI-8226 leukemia = tested on: RPMI-8226 leukemia
RXF 393 renal = tested on: RXF 393 renal
SR leukemia = tested on: SR leukemia

## CN(C)CCNc1c2ccccc2nc2oc3ccccc3c12
786-0 renal
  GI50: 5.39 µM
  TGI: 29.2 µM
A498 renal
  GI50: 3.28 µM
  TGI: 13.8 µM
A549 NSCLC
  GI50: 4.75 µM
  TGI: 36 µM
ACHN renal
  GI50: 4.48 µM
  TGI: 25.8 µM
BT-549 breast
  GI50: 5.67 µM
  TGI: 18.4 µM
CAKI-1 renal
  GI50: 14.5 µM
  TGI: > 100 µM
CCRF-CEM leukemia
  TGI: 0.0412 µM
COLO 205 colon
  GI50: 2430 nM
  TGI: 10.3 µM
DU-145 prostate
  GI50: 4.35 µM
  TGI: 17.9 µM
EKVX NSCLC
  GI50: 6.49 µM
  TGI: 32.2 µM
HCC-2998 colon
  GI50: 8.49 µM
  TGI: 22.3 µM
HCT-116 colon
  GI50: 4160 nM
  TGI: 23.7 µM
HCT-15 colon
  GI50: 5.04 µM
  TGI: 25 µM
HL-60(TB) leukemia
  GI50: 3530 nM
  TGI: 25.2 µM
HOP-62 NSCLC
  GI50: 7.97 µM
  TGI: 42.6 µM
HS 578T breast
  GI50: 4.6 µM
  TGI: 20.1 µM
HT29 colon
  GI50: 3.97 µM
  TGI: 19.6 µM
IGROV1 ovarian
  GI50: 4.82 µM
  TGI: 26 µM
K-562 leukemia
  GI50: 5.22 µM
  TGI: > 100 µM
KM12 colon
  GI50: 6.84 µM
  TGI: 33.9 µM
LOX IMVI melanoma
  GI50: 4.35 µM
  TGI: 14.9 µM
M14 melanoma
  GI50: 11.3 µM
  TGI: 32.5 µM
MALME-3M melanoma
  GI50: 3.73 µM
  TGI: 17.6 µM
MCF7 breast
  GI50: 4.07 µM
  TGI: 16.1 µM
MDA-MB-231 breast
  GI50: 6.47 µM
  TGI: 27.2 µM
MDA-MB-435
  GI50: 6.9 µM
  TGI: 23 µM
MOLT-4 leukemia
  GI50: 3000 nM
  TGI: 12.1 µM
NCI-H226 lung
  GI50: 8.65 µM
  TGI: 47.1 µM
NCI-H460 lung
  GI50: 3.37 µM
  TGI: 13.3 µM
NCI-H522 lung
  GI50: 4.6 µM
  TGI: 18.3 µM
NCI/ADR-RES ovarian
  GI50: 9 µM
  TGI: > 100 µM
OVCAR-3 ovarian
  GI50: 8.71 µM
  TGI: 51 µM
OVCAR-4 ovarian
  GI50: 9.45 µM
  TGI: 37.9 µM
OVCAR-5 ovarian
  GI50: 20.6 µM
  TGI: 49.7 µM
OVCAR-8 ovarian
  GI50: 6.66 µM
  TGI: > 100 µM
PC-3 prostate
  GI50: 3.4 µM
  TGI: 19.5 µM
SF-268 CNS
  GI50: 5.81 µM
  TGI: 27.7 µM
SF-295 CNS
  GI50: 5.99 µM
  TGI: 24.6 µM
SF-539 CNS
  GI50: 4030 nM
  TGI: 15.3 µM
SK-MEL-2 melanoma
  GI50: 12.2 µM
  TGI: 31.4 µM
SK-MEL-28 melanoma
  GI50: 11.8 µM
  TGI: 25.3 µM
SK-MEL-5 melanoma
  GI50: 8.09 µM
  TGI: 20.5 µM
SK-OV-3 ovarian
  GI50: 7.11 µM
  TGI: 28.5 µM
SN12C renal
  GI50: 5.66 µM
  TGI: 34 µM
SNB-19 CNS
  GI50: 6.88 µM
  TGI: 34.8 µM
SNB-75 CNS
  GI50: 12.5 µM
  TGI: 25.8 µM
SW-620 colon
  GI50: 3610 nM
  TGI: 15.1 µM
T-47D breast
  GI50: 4.72 µM
  TGI: 26.7 µM
TK-10 renal
  GI50: 5.86 µM
  TGI: 55.5 µM
U251 CNS
  GI50: 7.87 µM
  TGI: 24.7 µM
UACC-257 melanoma
  GI50: 7.88 µM
  TGI: 27 µM
UACC-62 melanoma
  GI50: 10.1 µM
  TGI: 23.5 µM
UO-31 renal
  GI50: 4.91 µM
  TGI: 46.9 µM

## O=C1C=CC(=O)N1c1cccc(N2C(=O)C=CC2=O)c1
786-0 renal
  GI50: 1.84 µM
  TGI: 3.44 µM
A498 renal
  GI50: 16.2 µM
  TGI: 31.1 µM
A549 NSCLC
  GI50: 19.3 µM
  TGI: 45.4 µM
ACHN renal
  GI50: 1.77 µM
  TGI: 3.21 µM
BT-549 breast
  GI50: 7.51 µM
  TGI: 20.2 µM
CCRF-CEM leukemia
  GI50: 2270 nM
  TGI: 7.65 µM
COLO 205 colon
  GI50: 1390 nM
  TGI: 2.88 µM
DU-145 prostate
  GI50: 10.9 µM
  TGI: 22.8 µM
EKVX NSCLC
  GI50: 19.1 µM
  TGI: 83.1 µM
HCC-2998 colon
  GI50: 12.9 µM
  TGI: 26.4 µM
HCT-116 colon
  GI50: 1700 nM
  TGI: 3.22 µM
HCT-15 colon
  GI50: 1.91 µM
  TGI: 3.93 µM
HL-60(TB) leukemia
  GI50: 1790 nM
  TGI: 5.12 µM
HOP-62 NSCLC
  GI50: 16.8 µM
  TGI: 33.5 µM
HOP-92 NSCLC
  GI50: 1750 nM
  TGI: 3.78 µM
HS 578T breast
  GI50: 2.17 µM
  TGI: 5.73 µM
HT29 colon
  GI50: 2.3 µM
  TGI: 4.94 µM
IGROV1 ovarian
  GI50: 2.38 µM
  TGI: 5.52 µM
K-562 leukemia
  GI50: 2.67 µM
  TGI: 7.7 µM
KM12 colon
  GI50: 8.33 µM
  TGI: 22.7 µM
LOX IMVI melanoma
  GI50: 2.02 µM
  TGI: 4.02 µM
M14 melanoma
  GI50: 1.85 µM
  TGI: 3.71 µM
MALME-3M melanoma
  GI50: 3 µM
  TGI: 6.94 µM
MCF7 breast
  GI50: 2.52 µM
  TGI: 5.52 µM
MDA-MB-231 breast
  GI50: 1.97 µM
  TGI: 4.53 µM
MDA-MB-435
  GI50: 3.85 µM
  TGI: 16.2 µM
MOLT-4 leukemia
  GI50: 2740 nM
  TGI: 7.73 µM
NCI-H226 lung
  GI50: 2.91 µM
  TGI: 7.63 µM
NCI-H23 lung
  GI50: 2540 nM
  TGI: 7.07 µM
NCI-H460 lung
  GI50: 18.3 µM
  TGI: 38.6 µM
NCI-H522 lung
  GI50: 1.62 µM
  TGI: 3.04 µM
NCI/ADR-RES ovarian
  GI50: 2.38 µM
  TGI: 6.14 µM
OVCAR-3 ovarian
  GI50: 2.04 µM
  TGI: 3.54 µM
OVCAR-5 ovarian
  GI50: 1.81 µM
  TGI: 4.06 µM
OVCAR-8 ovarian
  GI50: 2.25 µM
  TGI: 5.17 µM
PC-3 prostate
  GI50: 13.4 µM
  TGI: 31.6 µM
RPMI-8226 leukemia
  GI50: 2940 nM
  TGI: 7.19 µM
RXF 393 renal
  GI50: 1700 nM
  TGI: 3.1 µM
SF-268 CNS
  GI50: 7.09 µM
  TGI: 19.8 µM
SF-295 CNS
  GI50: 21.2 µM
  TGI: 44.5 µM
SF-539 CNS
  GI50: 1840 nM
  TGI: 3.46 µM
SK-MEL-2 melanoma
  GI50: 2.52 µM
  TGI: 5.55 µM
SK-MEL-28 melanoma
  GI50: 1.95 µM
  TGI: 3.78 µM
SK-MEL-5 melanoma
  GI50: 10.9 µM
  TGI: 23 µM
SK-OV-3 ovarian
  GI50: 18.2 µM
  TGI: 32.1 µM
SN12C renal
  GI50: 2 µM
  TGI: 5.31 µM
SNB-19 CNS
  GI50: 18.6 µM
  TGI: 35.8 µM
SNB-75 CNS
  GI50: 4.71 µM
  TGI: 18.3 µM
SR leukemia
  GI50: 3.07 µM
  TGI: > 100 µM
SW-620 colon
  GI50: 1990 nM
  TGI: 3.87 µM
TK-10 renal
  GI50: 1.71 µM
  TGI: 3.13 µM
U251 CNS
  GI50: 11.4 µM
  TGI: 25.2 µM
UACC-257 melanoma
  GI50: 1.65 µM
  TGI: 3.32 µM
UACC-62 melanoma
  GI50: 2.48 µM
  TGI: 9.46 µM
UO-31 renal
  GI50: 1.94 µM
  TGI: 4.11 µM
